IC50 data for 34 compounds are collected here from patent US9174969B2, “Indoline scaffold SHP-2 inhibitors and cancer treatment method” (UNIVERSITY OF SOUTH FLORIDA, priority 2008, dated 2015).

A word on the IC50: it is the point on the concentration scale where inhibition reaches its midpoint.

This test deals with Shp2 (Homo sapiens (Human), UniProt Q06124). Briefly: in vitro phosphotyrosine phosphatase activity (DiFMUP) assay. The format is biochemical. As to conditions: mean ± spread over n tests. How it is done: All reagents were purchased from commercial suppliers and used without further purification. Melting points were determined using a Barnstead international melting point apparatus and remain uncorrected. ^1H NMR spectra were recorded on a Varian Mercury 400 MHz spectrometer with CDCl3 or DMSO-d6 as the solvent. ^13C NMR spectra are recorded at 100 MHz. All coupling constants are measured in Hertz (Hz) and the chemical shifts (δH and δC) are quoted in parts per million (ppm) relative to TMS (δ0), which was used as the internal standard. High resolution mass spectroscopy was carried out on an Agilent 6210 LC/MS (ESI-TOF). Microwave reactions were performed in CEM 908005 model and Biotage initiator 8 machines. HPLC analysis was performed using a JASCO HPLC system equipped with a PU-2089 Plus quaternary gradient pump and a UV-2075 Plus UV-VIS detector, using an Alitech Kromasil C-18 column (150×4.6 mm, 5 μm). Thin layer chromatography was performed using silica gel 60 F254 plates (Fisher), with observation under UV when necessary. Anhydrous solvents (acetonitrile, dimethyl formamide, ethanol, isopropanol, methanol and tetrahydrofuran) were used as purchased from Aldrich. HPLC grade solvents (methanol, acetonitrile and water) were purchased from Burdick and Jackson for HPLC and mass analysis.
For the compound “4-(6-(4-(3-Chlorophenyl)piperazin-1-ylsulfonyl)-3,4-dihydroquinolin-1(2H)-yl)-4-oxobutanoic acid [JHE-02-023]”, inhibition was half-maximal at 37.3 ± 5.3 µM (IC50). Under `O=C(c1cccc(Cl)c1)N1CCc2cc(S(=O)(=O)N3CCN(c4cccc(Cl)c4)CC3)ccc21` [JF020, (3-Chlorophenyl)(5-(4-(3-chlorophenyl)piperazin-1-ylsulfonyl)indolin-1-yl)methanone] stands 5.7 ± 3.9 µM; under `O=C(c1ccc(Cl)cc1)N1CCc2cc(S(=O)(=O)N3CCN(c4cccc(Cl)c4)CC3)ccc21` [JF021, (4-Chlorophenyl)(5-(4-(3-chlorophenyl)piperazin-1-ylsulfonyl)indolin-1-yl)methanone], 10.4 ± 2 µM; under `O=C(c1ccccc1)N1CCc2cc(S(=O)(=O)N3CCN(c4cccc(Cl)c4)CC3)ccc21` [JF022, (5-(4-(3-Chlorophenyl)piperazin-1-ylsulfonyl)indolin-1-yl)(phenyl)methanone], 8.4 ± 2.3 µM. With `O=C(c1ccc(Cl)cc1Cl)N1CCc2cc(S(=O)(=O)N3CCN(c4cccc(Cl)c4)CC3)ccc21` [JF024, (5-(4-(3-Chlorophenyl)piperazin-1-ylsulfonyl)indolin-1-yl)(2,4-dichlorophenyl)methanone] the figure was 7.6 ± 1.3 µM; with `O=C(c1cc(Cl)cc(Cl)c1)N1CCc2cc(S(=O)(=O)N3CCN(c4cccc(Cl)c4)CC3)ccc21` [JF025, (5-(4-(3-Chlorophenyl)piperazin-1-ylsulfonyl)indolin-1-yl)(3,5-dichlorophenyl)methanone], 8.2 ± 2.6 µM; with `O=C(C1CCCC1)N1CCc2cc(S(=O)(=O)N3CCN(c4cccc(Cl)c4)CC3)ccc21` [JF026, (5-(4-(3-Chlorophenyl)piperazin-1-ylsulfonyl)indolin-1-yl)(cyclopentyl)methanone], 6.9 ± 2.2 µM.

In the case of `O=C(C1CC1)N1CCc2cc(S(=O)(=O)N3CCN(c4cccc(Cl)c4)CC3)ccc21` [JF027, (5-(4-(3-Chlorophenyl)piperazin-1-ylsulfonyl)indolin-1-yl)(cyclopropyl)methanone], the IC50 was found to be 8.5 ± 2 µM. Under `COc1ccc(C(=O)N2CCc3cc(S(=O)(=O)N4CCN(c5cccc(Cl)c5)CC4)ccc32)cc1` [JF028, (5-(4-(3-Chlorophenyl)piperazin-1-ylsulfonyl)indolin-1-yl)(4-methoxyphenyl)methanone] stands 6.3 ± 2.9 µM. With `O=C(Cc1ccccc1)N1CCc2cc(S(=O)(=O)N3CCN(c4cccc(Cl)c4)CC3)ccc21` [JF031, 1-(5-(4-(3-Chlorophenyl)piperazin-1-ylsulfonyl)indolin-1-yl)-2-phenyleth anone] the figure was 22.8 ± 4.5 µM; with `O=C(Nc1ccccc1)N1CCc2cc(S(=O)(=O)N3CCN(c4cccc(Cl)c4)CC3)ccc21` [JF033, 5-(4-(3-Chlorophenyl)piperazin-1-ylsulfonyl)-N-phenylindoline-1-carboxamide], 11.7 ± 1.4 µM. Under `O=C(Nc1ccccc1F)N1CCc2cc(S(=O)(=O)N3CCN(c4cccc(Cl)c4)CC3)ccc21` [JF035, 5-(4-(3-Chlorophenyl)piperazin-1-ylsulfonyl)-N-(2-fluorophenyl)indoline-1-carboxamide] stands 12.2 ± 2 µM; under `O=C(Nc1ccc(F)cc1)N1CCc2cc(S(=O)(=O)N3CCN(c4cccc(Cl)c4)CC3)ccc21` [JF038, 5-(4-(3-Chlorophenyl)piperazin-1-ylsulfonyl)-N-(4-fluorophenyl)indoline-1-carboxamide], 12.6 ± 5.4 µM; under `O=C(Nc1cccc(F)c1)N1CCc2cc(S(=O)(=O)N3CCN(c4cccc(Cl)c4)CC3)ccc21` [JF039, 5-(4-(3-Chlorophenyl)piperazin-1-ylsulfonyl)-N-(3-fluorophenyl)indoline-1-carboxamide], 8.1 ± 1.7 µM.

Compound `O=C(Nc1ccccc1C(F)(F)F)N1CCc2cc(S(=O)(=O)N3CCN(c4cccc(Cl)c4)CC3)ccc21` [JF040, 5-(4-(3-Chlorophenyl)piperazin-1-ylsulfonyl)-N-(2-(trifluoromethyl)phenyl)indoline-1-carboxamide] came in with a 50% inhibitory concentration (IC50) of 9 ± 1.7 µM. Under `O=C(O)/C=C\C(=O)N1CCc2cc(S(=O)(=O)N3CCN(c4cccc(Cl)c4)CC3)ccc21` [JHE-01-129A, (Z)-4-(5-(4-(3-Chlorophenyl)piperazin-1-ylsulfonyl)indolin-1-yl)-4-oxobut-2-enoic acid] stands 2.8 ± 0.7 µM; under `O=C(O)CCCC(=O)N1CCc2cc(S(=O)(=O)N3CCN(c4cccc(Cl)c4)CC3)ccc21` [JHE-01-129B, 5-(5-(4-(3-Chlorophenyl)piperazin-1-ylsulfonyl)indolin-1-yl)-5-oxopentanoic acid], 2.8 ± 0.7 µM; under `CCOC(=O)CNC(=O)N1CCc2cc(S(=O)(=O)N3CCN(c4cccc(Cl)c4)CC3)ccc21` [JHE-01-134A, ethyl 2-(5-(4-(3-Chlorophenyl)piperazin-1-ylsulfonyl)indoline-1-carboxamido)acetate], 60.3 µM.

In turn, `O=C(O)CNC(=O)N1CCc2cc(S(=O)(=O)N3CCN(c4cccc(Cl)c4)CC3)ccc21` [JHE-01-137, 2-(5-(4-(3-Chlorophenyl)piperazin-1-ylsulfonyl)indoline-1-carboxamido)acetic acid] registered an IC50 of 4.6 ± 0.3 µM. Against the preceding compound, the IC50 is about 13-fold lower. With `O=C(O)C(=O)N1CCc2cc(S(=O)(=O)N3CCN(c4cccc(Cl)c4)CC3)ccc21` [JHE-01-155B, 2-(5-(4-(3-Chlorophenyl)piperazin-1-ylsulfonyl)indolin-1-yl)-2-oxoacetic acid] the figure was 4.8 ± 2.8 µM. Under `COCC(=O)N1CCc2cc(S(=O)(=O)N3CCN(c4cccc(Cl)c4)CC3)ccc21` [JHE-01-169, 1-(5-(4-(3-Chlorophenyl)piperazin-1-ylsulfonyl)indolin-1-yl)-2-methoxyethanone] stands 9.6 ± 2.4 µM. `O=C(O)C(O)CC(=O)N1CCc2cc(S(=O)(=O)N3CCN(c4cccc(Cl)c4)CC3)ccc21` (stereo not shown) [JHE-02-001, 4-(5-(4-(3-Chlorophenyl)piperazin-1-ylsulfonyl)indolin-1-yl)-2-hydroxy-4-oxobutanoic acid] came in with an IC50 of 1.1 ± 0.3 µM. Turning to `O=C(O)C1CC=CCC1C(=O)N1CCc2cc(S(=O)(=O)N3CCN(c4cccc(Cl)c4)CC3)ccc21` (stereo not shown) [JHE-02-007, 6-(5-(4-(3-Chlorophenyl)piperazin-1-ylsulfonyl)indoline-1-carbonyl)cyclohex-3-enecarboxylic acid], inhibition was half-maximal at 20.3 ± 4.3 µM (IC50).

As to `CCOC(=O)CCNC(=O)N1CCc2cc(S(=O)(=O)N3CCN(c4cccc(Cl)c4)CC3)ccc21` [JHE-02-010A, Ethyl 3-(5-(4-(3-chlorophenyl)piperazin-1-ylsulfonyl)indoline-1-carboxamido)propanoate], half-maximal inhibition (IC50) was put at 9.3 ± 2.2 µM. This IC50 lies about 2.2-fold lower than the previous one. Under `CCOC(=O)C(C)NC(=O)N1CCc2cc(S(=O)(=O)N3CCN(c4cccc(Cl)c4)CC3)ccc21` (stereo not shown) [JHE-02-010B, Ethyl 2-(5-(4-(3-chlorophenyl)piperazin-1-ylsulfonyl)indoline-1-carboxamido)propanoate] stands 5.1 ± 2.7 µM; under `CCOC(=O)C(NC(=O)N1CCc2cc(S(=O)(=O)N3CCN(c4cccc(Cl)c4)CC3)ccc21)C(C)C` (stereo not shown) [JHE-02-010C, Ethyl 2-(5-(4-(3-chlorophenyl)piperazin-1-ylsulfonyl)indoline-1-carboxamido)-3-methylbutanoate], 7.7 ± 2.4 µM. Under `CCOC(=O)C(CC(C)C)NC(=O)N1CCc2cc(S(=O)(=O)N3CCN(c4cccc(Cl)c4)CC3)ccc21` (stereo not shown) [JHE-02-012, Ethyl 2-(5-(4-(3-chlorophenyl)piperazin-1-ylsulfonyl)indoline-1-carboxamido)-4-methylpentanoate] stands 6 ± 2.8 µM; under `CCOC(=O)C(Cc1ccccc1)NC(=O)N1CCc2cc(S(=O)(=O)N3CCN(c4cccc(Cl)c4)CC3)ccc21` (stereo not shown) [JHE-02-014, Ethyl 2-(5-(4-(3-chlorophenyl)piperazin-1-ylsulfonyl)indoline-1-carboxamido)-3-phenylpropanoate], 6.9 ± 4.2 µM; under `COC(=O)c1ccccc1NC(=O)N1CCc2cc(S(=O)(=O)N3CCN(c4cccc(Cl)c4)CC3)ccc21` [JHE-02-015A, Methyl 2-(5-(4-(3-chlorophenyl)piperazin-1-ylsulfonyl)indoline-1-carboxamido)benzoate], 14.3 ± 4.1 µM.

On to `O=C(O)CCNC(=O)N1CCc2cc(S(=O)(=O)N3CCN(c4cccc(Cl)c4)CC3)ccc21` [JHE-02-017A, 3-(5-(4-(3-Chlorophenyl)piperazin-1-ylsulfonyl)indoline-1-carboxamido)propanoic acid], for which it took 4.8 ± 3.3 µM to reach half-maximal inhibition (IC50).

The compound `CC(NC(=O)N1CCc2cc(S(=O)(=O)N3CCN(c4cccc(Cl)c4)CC3)ccc21)C(=O)O` (stereo not shown) [JHE-02-017B, 2-(5-(4-(3-Chlorophenyl)piperazin-1-ylsulfonyl)indoline-1-carboxamido)propanoic acid] gave a concentration for half-maximal inhibition (IC50) of 6.4 ± 0.5 µM. With `CC(C)C(NC(=O)N1CCc2cc(S(=O)(=O)N3CCN(c4cccc(Cl)c4)CC3)ccc21)C(=O)O` (stereo not shown) [JHE-02-017C, 2-(5-(4-(3-Chlorophenyl)piperazin-1-ylsulfonyl)indoline-1-carboxamido)-3-methylbutanoic acid] the figure was 4.4 ± 1.9 µM; with `CC(C)CC(NC(=O)N1CCc2cc(S(=O)(=O)N3CCN(c4cccc(Cl)c4)CC3)ccc21)C(=O)O` (stereo not shown) [JHE-02-019A, 2-(5-(4-(3-Chlorophenyl)piperazin-1-ylsulfonyl)indoline-1-carboxamido)-4-methylpentanoic acid], 4.5 ± 3.5 µM. Under `O=C(O)C(Cc1ccccc1)NC(=O)N1CCc2cc(S(=O)(=O)N3CCN(c4cccc(Cl)c4)CC3)ccc21` (stereo not shown) [JHE-02-019B, 2-(5-(4-(3-Chlorophenyl)piperazin-1-ylsulfonyl)indoline-1-carboxamido)-3-phenylpropanoic acid] stands 5.4 ± 2.7 µM.
